Measurements taken from patent US20250188075A1, “SUBSTITUTED HETEROCYCLIC CSNK1 INHIBITORS” (The Broad Institute, Inc., priority 2022, published 2025).

How the values were obtained:
human CSNK1A1 = human CSNK1A1 (Homo sapiens (Human), UniProt P48729); test: CSNK1A1 high ATP assay (ADP-Glo, 1 mM ATP); type: biochemical; conditions: median, read-out: CSNK1A1 High ATP assay IC50 [mol/l] (median)
Procedure: CSNK1A1-inhibitory activity of compounds of the present invention in presence of 1 mM adenosine-tri-phosphate (ATP) was quantified employing the CSNK1A1-high-ATP-assay as described in the following paragraphs. In essence, the enzyme activity is measured by quantification of the adenosine-di-phosphate (ADP), which is generated as a co-product of the enzyme reaction, via the “ADP-Glo™ Kinase Assay” kit from the company Promega. This detection system works as follows: In a first step the ATP not consumed in the kinase reaction is quantitatively converted to CAMP employing an adenylate cyclase (“ADP-Glo-reagent”), then the adenylate cyclase is stopped and the ADP generated in the kinase reaction converted to ATP which generates in a luciferase-based reaction a glow-luminescence signal (“Kinase Detection Reagent”).
Recombinant fusion protein of N-terminal Glutathion-S-Transferase (GST) and full-length human CSNK1A1, expressed by baculovirus infected insect cells and purified via Glutathion affinity chromatography, was purchased from Life Technologies (product no. PV4174) and used as enzyme. As substrate for the kinase reaction the biotinylated peptide biotin-Ahx-KRRRAL-pS-VASLPGL (C-terminus in amide form) was used which can be purchased e.g. from the company Biosyntan (Berlin-Buch, Germany).
For the assay 50 nl of a 100 fold concentrated solution of the test compound in DMSO was pipetted into a white low volume 384-well microtiter plate (Greiner Bio-One, Frickenhausen, Germany), 2 μL of a solution of CSNK1A1 in aqueous assay buffer [50 mM HEPES pH 7.5, 10% (v/v) glycerol, 10 mM MgCl2, 50 mM NaCl, 1 mM dithiothreitol, 0.01% (w/v) bovine serum albumin, 0.01% (v/v) Triton X-100] were added and the mixture was incubated for 15 min at 22° C. to allow pre-binding of the test compounds to the enzyme before the start of the kinase reaction. Then the kinase reaction was started by the addition of 3 μL of a solution of ATP (1.67 mM=>final conc. in the 5 μL assay volume is 1 mM) and peptide substrate (167 μM=>final conc. in the 5 μL assay volume is 100 μM) in assay buffer and the resulting mixture was incubated for a reaction time of 30 min at 22° C. The concentration of CSNK1A1 was adjusted depending of the activity of the enzyme lot and was chosen appropriate to have the assay in the linear range, a typical concentration is about 0.4 ng/μL. The reaction was stopped by the addition of 2.5 μL of “ADP-Glo-reagent” (1:1.5 fold diluted with water) and the resulting mixture was incubated at 22° C. for 1 h to convert the ATP not consumed in the kinase reaction completely to CAMP. Subsequently 2.5 μL of the “kinase detection reagent” (1.2 fold more concentrated than recommended by the producer) were added, the resulting mixture was incubated at 22° C. for 1 h and then the luminescence measured with a suitable measurement instrument (e.g. Viewlux™ from Perkin-Elmer). The amount of emitted light was taken as a measure for the amount of ADP generated and thereby for the activity of the CSNK1A1.
The data were normalised (enzyme reaction without inhibitor=0% inhibition, all other assay components but no enzyme=100% inhibition).

total-p53 in MCF-7 cells = test: HTRF total-p53 in MCF-7 cells; type: cell-based; conditions: Homo sapiens, MCF7, 2 h incubation, median, read-out: HTRF total-p53 MCF-7, IC50 - [mol/l] (median)
Procedure: Day 1: MCF-7 cells were seeded (10,000 cells in 12 μl/well) in a 384-well-Small Volume-plate (Greiner Bio One #784075) in culture medium (RPMI 1640; (Biochrom; #F 1275; without PhenolRed)+FCS (final: 10%); (Biochrom; #S 0415)+Insulin (bovine); (final: 10 μg/mL, Biochrom; #K 3510)+L-Alanyl-L-Glutamine; (final: 2 mM, Biochrom; #K 0302)+Natriumpyruvat; (final: 1 mM, Biochrom; #L 0473)+Non Essentiell Amino Acids; (final: 1×, Biochrom; #K 0293)). The cells were then treated with different compounds or DMSO (added with the HP Dispenser) and incubated for 2 h at 37° C. Following incubation, the cells were lysed in 4 μl of lysis buffer for 1 h shaking at RT. Finally, 4 μl of antibody solution was added and the samples are incubated overnight at RT, shaking.
Total-p53 was detected in a sandwich assay format using 2 different specific antibodies, one labeled with Eu3+-Cryptate (donor) and the second with d2 (acceptor). Kit: HTRF total p53 detection assay (Cisbio Cat: 64T53PEG).
Day 2: the plate was read on PHERAstar FS (BMG Labtech settings; optic module: HTRF; integration start: 60 us; integration time: 400 μs; flash lamp). IC50 values were calculated using the DRC application in ShiNy Analysis Platform-SNAP.”

HT-29 cells = test: HT29 cell proliferation assay, CTG method; type: cell-based; conditions: Homo sapiens; HT-29, CTG, 96 h; median; read-out: 2D-PROLI HT-29 CTG 96 h, IC50 - [mol/l] (median)
Procedure: CELL PROLIFERATION ASSAY CTG METHOD, 384-well version: Day 1: plated 400 cells/30 μL/well in growth medium (DMEM/Ham's F12; (Biochrom; #FG 4815, mit stabilem Glutamin)+FCS (final: 10%); (Biochrom; #S 0415)) in 384-well black plates (Corning #3571). Plated sister wells in a separate plate for time zero determination. Incubated all plates overnight at 37° C. Day 2: added test compounds in serial dilutions using the HP D300 Digital Dispenser and incubated at 37° C. for 96 h. Measured time zero plate: add 30 μL/well CTG solution (Promega CellTiter-Glo solution (catalog #G7573)) to wells in time zero plate; incubated for 2 minutes in a orbital shaker to induce cell lysis; allowed the plate to incubate at room temperature for additional 10 min to stabilize luminescent signal and read luminescence on PheraStar (rapid mode—0.02 sec/well; GAIN 3000). Day 6: Added 30 μL/well CTG solution to all test wells, incubated for 2 minutes in a orbital shaker to induce cell lysis; allowed the plate to incubate at room temperature for additional 10 min to stabilize luminescent signal and read luminescence on PheraStar (rapid mode—0.02 sec/well; GAIN 3000 Proliferation IC50s were calculated using the DRC application in ShiNy Analysis Platform-SNAP.”

Sequence of human CSNK1A1 (P48729 whole entry): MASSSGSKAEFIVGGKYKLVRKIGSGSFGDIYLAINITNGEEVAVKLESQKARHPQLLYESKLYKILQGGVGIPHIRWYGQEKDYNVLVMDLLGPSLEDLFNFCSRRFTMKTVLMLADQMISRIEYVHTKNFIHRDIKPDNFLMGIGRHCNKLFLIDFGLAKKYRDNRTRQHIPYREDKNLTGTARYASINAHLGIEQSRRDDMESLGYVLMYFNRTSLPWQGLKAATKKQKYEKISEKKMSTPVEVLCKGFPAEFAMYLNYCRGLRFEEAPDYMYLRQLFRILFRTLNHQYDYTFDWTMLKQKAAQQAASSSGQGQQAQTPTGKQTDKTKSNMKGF

Row | SMILES | IC50 (human CSNK1A1) [nM] | IC50 (total-p53 in MCF-7 cells) [nM] | IC50 (HT-29 cells) [nM]
1 | O=C(Cc1cnc2ccccn12)Nc1cc(-c2[nH]c3cccnc3c2-c2ccccn2)ccn1 [Example 1, 2-imidazo[1,2-a]pyridin-3-yl-N-[4-[3-(2-pyridyl)-^1H-pyrrolo[3,2-b]pyridin-2-yl]-2-pyridyl]acetamide] | 38.5 | 193 | 2670
2 | Cn1cc(CC(=O)Nc2cc(-c3[nH]c4cccnc4c3-c3ccccn3)ccn2)cn1 [Example 2, 2-(1-methylpyrazol-4-yl)-N-[4-[3-(2-pyridyl)-^1H-pyrrolo[3,2-b]pyridin-2-yl]-2-pyridyl]acetamide] | 31.6 | 264 | 2670
3 | Cc1nc(CC(=O)Nc2cc(-c3[nH]c4cccnc4c3-c3ccccn3)ccn2)cs1 [Example 3, 2-(2-methylthiazol-4-yl)-N-[4-[3-(2-pyridyl)-^1H-pyrrolo[3,2-b]pyridin-2-yl]-2-pyridyl]acetamide] | 30.8 | 184 | 445
4 | O=C(Cc1cnco1)Nc1cc(-c2[nH]c3cccnc3c2-c2ccccn2)ccn1 [Example 4] | – | 137 | 588
5 | Cn1cnc(CC(=O)Nc2cc(-c3[nH]c4cccnc4c3-c3ccccn3)ccn2)c1 [Example 5, 2-(1-methylimidazol-4-yl)-N-[4-[3-(2-pyridyl)-^1H-pyrrolo[3,2-b]pyridin-2-yl]-2-pyridyl]acetamide] | 589 | 924 | 3420
6 | O=C(Cc1cnc2ccccc2n1)Nc1cc(-c2[nH]c3cccnc3c2-c2ccccn2)ccn1 [Example 6, N-[4-[3-(2-pyridyl)-^1H-pyrrolo[3,2-b]pyridin-2-yl]-2-pyridyl]-2-quinoxalin-2-yl-acetamide] | 6.06 | 41 | 125
7 | Cc1nn(C)cc1CC(=O)Nc1cc(-c2[nH]c3cccnc3c2-c2ccccn2)ccn1 [Example 9, 2-(1,3-dimethylpyrazol-4-yl)-N-[4-[3-(2-pyridyl)-^1H-pyrrolo[3,2-b]pyridin-2-yl]-2-pyridyl]acetamide] | – | 210 | 860
8 | O=C(Cc1ccon1)Nc1cc(-c2[nH]c3cccnc3c2-c2ccccn2)ccn1 [Example 10, 2-isoxazol-3-yl-N-[4-[3-(2-pyridyl)-^1H-pyrrolo[3,2-b]pyridin-2-yl]-2-pyridyl]acetamide] | – | 262 | 797
9 | Cc1ocnc1CC(=O)Nc1cc(-c2[nH]c3cccnc3c2-c2ccccn2)ccn1 [Example 11, 2-(5-methyloxazol-4-yl)-N-[4-[3-(2-pyridyl)-^1H-pyrrolo[3,2-b]pyridin-2-yl]-2-pyridyl]acetamide] | – | 375 | 1410
10 | Cc1noc(C)c1CC(=O)Nc1cc(-c2[nH]c3cccnc3c2-c2ccccn2)ccn1 [Example 12, 2-(3,5-dimethylisoxazol-4-yl)-N-[4-[3-(2-pyridyl)-^1H-pyrrolo[3,2-b]pyridin-2-yl]-2-pyridyl]acetamide] | 66.9 | 205 | 1190
11 | Cc1cc(CC(=O)Nc2cc(-c3[nH]c4cccnc4c3-c3ccccn3)ccn2)on1 [Example 13, 2-(3-methylisoxazol-5-yl)-N-[4-[3-(2-pyridyl)-^1H-pyrrolo[3,2-b]pyridin-2-yl]-2-pyridyl]acetamide] | 41.3 | 152 | 442
12 | Cc1cc(CC(=O)Nc2cc(-c3[nH]c4cccnc4c3-c3ccccn3)ccn2)n(C)n1 [Example 14] | 30.6 | 143 | 508
13 | O=C(Cc1cc2ccccn2n1)Nc1cc(-c2[nH]c3cccnc3c2-c2ccccn2)ccn1 [Example 15, 2-pyrazolo[1,5-a]pyridin-2-yl-N-[4-[3-(2-pyridyl)-^1H-pyrrolo[3,2-b]pyridin-2-yl]-2-pyridyl]acetamide] | 24.2 | 69.3 | 149
14 | Cc1cc(CC(=O)Nc2cc(-c3[nH]c4cccnc4c3-c3ccccn3)ccn2)nn1C [Example 16, 2-(1,5-dimethylpyrazol-3-yl)-N-[4-[3-(2-pyridyl)-^1H-pyrrolo[3,2-b]pyridin-2-yl]-2-pyridyl]acetamide] | 70.8 | 193 | 627
15 | Cc1nn(C)c(C)c1CC(=O)Nc1cc(-c2[nH]c3cccnc3c2-c2ccccn2)ccn1 [Example 17, N-[4-[3-(2-pyridyl)-^1H-pyrrolo[3,2-b]pyridin-2-yl]-2-pyridyl]-2-(1,3,5-trimethylpyrazol-4-yl)acetamide] | 124 | 198 | 1180
16 | Cc1ncc(CC(=O)Nc2cc(-c3[nH]c4cccnc4c3-c3ccccn3)ccn2)o1 [Example 24, 2-(2-methyloxazol-5-yl)-N-[4-[3-(2-pyridyl)-^1H-pyrrolo[3,2-b]pyridin-2-yl]-2-pyridyl]acetamide] | – | 174 | 481
17 | Cc1nc(CC(=O)Nc2cc(-c3[nH]c4cccnc4c3-c3ccccn3)ccn2)co1 [Example 25, 2-(2-methyloxazol-4-yl)-N-[4-[3-(2-pyridyl)-^1H-pyrrolo[3,2-b]pyridin-2-yl]-2-pyridyl]acetamide] | – | 321 | 630
18 | CC(C)n1ccc(CC(=O)Nc2cc(-c3[nH]c4cccnc4c3-c3ccccn3)ccn2)n1 [Example 28, 2-(1-isopropylpyrazol-3-yl)-N-[4-[3-(2-pyridyl)-^1H-pyrrolo[3,2-b]pyridin-2-yl]-2-pyridyl]acetamide] | – | 129 | 314
19 | Cc1nocc1CC(=O)Nc1cc(-c2[nH]c3cccnc3c2-c2ccccn2)ccn1 [Example 30, 2-(3-methylisoxazol-4-yl)-N-[4-[3-(2-pyridyl)-^1H-pyrrolo[3,2-b]pyridin-2-yl]-2-pyridyl]acetamide] | – | 226 | 1650
